In patent publication US20200085805A1, “METHOD FOR TREATING CANCER RELATED TO ACTIVATION OF RAS GENE IN SUBJECT” (priority 2018, published 2020):

What was measured:
RAS mRNA = assay: Reduction of RAS mRNA in Drosophila pupae, measured by RT-PCR (2-ΔΔCt method); type: in vivo; settings: 24 mM in culture medium, 5 days culture, 40 pupae, GAPDH internal reference, versus normal medium control
Method: The molecular weight of 1-methyl-4-phenyl-1,2,3,6-tetrahydropyridine is 173.25 g/mol. 1.7325 g of the compound was accurately weighed, dissolved in 10 mL of DMSO solution to prepare a 1 M mother liquid for later use.
The preparation of a normal culture medium: 0.53 g of agar and 1.6 g of yeast extraction powder was added to 50 mL H2O. The mixture obtained was heated until boiling. Then, 0.43 g of NaKT, 0.033 g of anhydrous CaCl2, 1.58 g of sucrose, 3.17 g of glucose, and 3.88 g of corn flour (pre-mixed thoroughly with cold water to prevent agglomeration) were added to the mixture, and was brought to boil before stopping heating. The final mixture was transferred in aliquots into a number of culture tubes with a diameter of 25 mm and a volume of 5-8 mL. The filled culture tubes were sterilized at high temperature (30 min, 116° C.), followed by cooling to around 50° C. […]
In the present invention, the content of RAS mRNA was measured by RT-PCR. […] After the amplification, the relative expression level of K-RAS in Drosophila was determined by the 2-ΔΔCt method.
After culturing in the normal culture medium (as a control group) and a culture medium doped by 24 mM of 1-methyl-4-phenyl-1,2,3,6-tetrahydropyridine (as a test group) for 5 days, 40 pupae were taken from each of the culture tubes used for the test. […] The relative amount of RAS mRNA was determined by the above method.

[1] = test system: L185+L186 Drosophila tumor model; assay: Inhibition of tumors in GFP-scrib-/- Drosophila tumor model (GFP fluorescence, live imaging); type: in vivo, Drosophila melanogaster; settings: oral administration of 24 mM in doped culture medium, 5 days, 80 pupae; without compound 2.37×10^9 μW/cm^2
Source text: A green fluorescent protein (GFP)-tagged FLP/FRT recombinant system and scrib/TM6B balanced Drosophila melanogaster strain were used for hybridization to obtain a GFP-scrib−/− chimeric tumorigenesis model (L185+L186), wherein the GFP expression is in linkage with tumorigenesis. The preparation of a normal culture medium and a doped culture medium was the same as in embodiment 1. After culturing in the normal culture medium and the doped culture medium for 5 days, 80 pupae were taken from the culture tubes used for the test and washed twice with PBS (phosphate buffered saline solution). The pupae were neatly arranged on slides and were then transferred to an ice box to freeze for 2 hours. The pupae were observed under an IVIS Lumina X5 live imaging system (excitation light wavelength 450-490 nm, the same hereafter), images were taken, and the expression of the green fluorescent protein was evaluated.

Compound: CN1CC=C(c2ccccc2)CC1 [1-methyl-4-phenyl-1,2,3,6-tetrahydropyridine]
- reduction of RAS mRNA level (RAS mRNA): 3.5 folds
- absolute value of the fluorescence of the Drosophila tumor model [1]: 3.5×10^8 μW/cm^2
